Data on 26 molecules can be found in article PMC6660996 (Bioorganic & medicinal chemistry, 2019).

Molecules are shown by their SMILES. Where two headings read alike, the source gives them in different places.

The test system of test [1] is T. gondii (tachyzoites). The note with it: cited from earlier work; for T. gondii growth ED50: tachyzoites, already published data, ref 47-55 (see b12).
Test [2] concerns hypervirulent RH strain of T. gondii. Particulars: cited from earlier work.
Another test relates to T. cruzi (amastigotes). The test is described as follows: T. cruzi amastigote assays. Format: cell-based. The note with it: Trypanosoma cruzi.
Test [3] deals with T. gondii (tachyzoites). As to the kind of experiment: T. gondii tachyzoites assays. It is filed as cell-based. Particulars: Toxoplasma gondii, read-out: T. gondii cells ED50, tachyzoites; Table 3.
[4] abbreviates: read-out: T. cruzi cells ED50, amastigotes, Table 3.

In the case of `CCCCCCCCC(F)(P(=O)(O)O)P(=O)(O)O` [Compound 10], the “T. gondii growth ED50” value with T. gondii (tachyzoites) [1] was 2.67 µM.

As for `CCCCCCCCCC(F)(P(=O)(O)O)P(=O)(O)O` [Compound 11], in the test on T. gondii (tachyzoites) [1], the “T. gondii growth ED50” value was more than 10.0 µM.

In the case of `CCCCCCNCC(P(=O)(O)O)P(=O)(O)O` [Compound 12], the “T. gondii growth ED50” value with T. gondii (tachyzoites) [1] was 9.4 µM.

As for `CCCCCCCNCC(P(=O)(O)O)P(=O)(O)O` [Compound 13], the “T. gondii growth ED50” value in the test on T. gondii (tachyzoites) [1] is more than 50.0 µM.

`CCCCCCCCCCCCNCC(P(=O)(O)O)P(=O)(O)O` [Compound 14]: the “T. gondii growth ED50” value in the test with T. gondii (tachyzoites) [1] is 6.23 µM.

With `CCCCCCCCNCC(O)(P(=O)(O)O)P(=O)(O)O` [Compound 15], in the test on T. gondii (tachyzoites) [1], the “T. gondii growth ED50” value was 2.0 µM.

In the case of `CCCCCCCSCC(P(=O)(O)O)P(=O)(O)O` [Compound 16], the “effect in combination with statins in in vivo assays” value in test [2] is listed as “strong synergistic effect”. The “T. gondii growth ED50” value with T. gondii (tachyzoites) [1] is 0.97 µM.

For `CCCCCCCCCCSCC(P(=O)(O)O)P(=O)(O)O` [Compound 17], in the test on T. gondii (tachyzoites) [1], the “T. gondii growth ED50” value was 1.8 µM.

For the molecule `CCCCCCCCCCS(=O)(=O)CC(P(=O)(O)O)P(=O)(O)O` [Compound 18], the “in vitro activity against T. gondii ED50” value in the test with T. gondii (tachyzoites) [1] (tachyzoites proliferation) was 0.1 µM. In addition, the “T. gondii growth ED50” value with T. gondii (tachyzoites) [1] was 0.11 µM.

Take `CCCCCCCC[S+](C)CC(P(=O)(O)O)P(=O)(O)O.F[B-](F)(F)F` (stereo not shown) [Compound 19]: in the test on T. gondii (tachyzoites) [1], the “T. gondii growth ED50” value was 7.0 µM.

With `CCCNC(P(=O)(O)O)P(=O)(O)O` [Compound 21, 1-n-Propylaminomethyl-1,1-bisphosphonic acid], the IC50 in the test with T. cruzi (amastigotes) (read-out: T. cruzi cells ED50) is more than 10 µM.

Turning to `CCCCNC(P(=O)(O)O)P(=O)(O)O` [Compound 22, 1-n-Butylaminomethyl-1,1-bisphosphonic acid], the IC50 with T. cruzi (amastigotes) (read-out: T. cruzi cells ED50) was more than 10 µM.

As for `CCCCCNC(P(=O)(O)O)P(=O)(O)O` [Compound 23, 1-n-Pentylaminomethyl-1,1-bisphosphonic acid], the IC50 in the test with T. cruzi (amastigotes) (setting [4]) is more than 10 µM.

As for `CCCCCCNC(P(=O)(O)O)P(=O)(O)O` [Compound 24, 1-n-Hexylaminomethyl-1,1-bisphosphonic acid], the IC50 with T. cruzi (amastigotes) (setting [4]) is more than 10 µM.

Turning to `CCCCCCCNC(P(=O)(O)O)P(=O)(O)O` [Compound 25, 1-n-Heptylaminomethyl-1,1-bisphosphonic acid], the IC50 in the test on T. cruzi (amastigotes) (setting [4]) is more than 10 µM.

As for `CCCCCCCCNC(P(=O)(O)O)P(=O)(O)O` [Compound 26, 1-n-Octylaminomethyl-1,1-bisphosphonic acid], in the test on T. cruzi (amastigotes) (setting [4]), the IC50 was more than 10 µM.

Take `CCCCCCCCCNC(P(=O)(O)O)P(=O)(O)O` [Compound 27, 1-n-Nonylaminomethyl-1,1-bisphosphonic acid]: the IC50 with T. cruzi (amastigotes) (setting [4]) was more than 10 µM.

With `CCCCCCCCCCNC(P(=O)(O)O)P(=O)(O)O` [Compound 28, 1-n-Decylaminomethyl-1,1-bisphosphonic acid], the IC50 in the test with T. cruzi (amastigotes) (setting [4]) amounted to 5.3 µM.

On to `O=P(O)(O)C(NC1CCCC1)P(=O)(O)O` [Compound 30, (Cyclopentylamino)methyl-1,1-bisphosphonic acid], for which, in the test with T. cruzi (amastigotes) (setting [4]), the IC50 is more than 10 µM.

Regarding `O=P(O)(O)C(NC1CCCCC1)P(=O)(O)O` [Compound 31, (Cyclohexylamino)methyl-1,1-bisphosphonic acid], the IC50 in the test on T. cruzi (amastigotes) (setting [4]) is more than 10 µM.

Turning to `O=P(O)(O)C(NC1CCCCCC1)P(=O)(O)O` [Compound 32, (Cycloheptylamino)methyl-1,1-bisphosphonic acid], the IC50 in the test with T. cruzi (amastigotes) (setting [4]) is more than 10 µM.

Consider `O=P(O)(O)C(N1CCCCC1)P(=O)(O)O` [Compound 33, (Piperidin-1-yl)methyl-1,1-bisphosphonic acid], for which, in the test on T. cruzi (amastigotes) (setting [4]), the IC50 is more than 10 µM.

As for `O=P(O)(O)C(CNC1CCCC1)P(=O)(O)O` [Compound 47, 1-[(Cyclopentylamino)ethyl] 1,1-bisphosphonic acid], the IC50 in the test on T. cruzi (amastigotes) (setting [4]) was more than 10 µM.

In the case of `O=P(O)(O)C(CNC1CCCCCC1)P(=O)(O)O` [Compound 48, 1-[(Cycloheptylamino)ethyl] 1,1-bisphosphonic acid], the IC50 in the test on T. cruzi (amastigotes) (setting [4]) is more than 10 µM.

On to `CC1CCC(NCC(P(=O)(O)O)P(=O)(O)O)CC1` (stereo not shown) [Compound 49, 1-[(4-methylcyclohexylamino)ethyl] 1,1-bisphosphonic acid], for which the IC50 in the test on T. cruzi (amastigotes) (setting [4]) is more than 10 µM.

For the molecule `CCCCCCCCCCCS(=O)(=O)CC(P(=O)(O)O)P(=O)(O)O` [Compound 56, 1-[(n-Undecylsulfonyl)ethyl]-1,1-biphosphonic acid], the IC50 in the test on T. gondii (tachyzoites) [3] is 0.53 µM.
